# PubChem BioAssay (NCI)
# Values joined by “and” are separate entries in the source; they are usually repeats but may differ in a detail not shown here. Equal values may be shown once.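 Cells were grown in 96-well plates and exposed to each compound for 48 hours at five concentrations; endpoints were interpolated linearly between bracketing concentrations, or set to the highest concentration if not reached. The concentration for 50% growth inhibition is given as GI50. TGI is the concentration that stops growth completely.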
# What was measured:
# Test in all cases: NCI tumour cell line growth inhibition, 48 h
# [1] = system: MCF7 breast
# [2] = system: OVCAR-8 ovarian
# [3] = system: HCT-15 colon
# [4] = system: SK-MEL-5 melanoma
# [5] = system: XF 498 CNS
# [6] = system: P388 leukemia
# [7] = system: LXFL 529 NSCLC
# [8] = system: EKVX NSCLC
# [9] = system: SF-268 CNS
# [10] = system: SN12K1 renal
# [11] = system: COLO 205 colon
# [12] = system: TK-10 renal
# [13] = system: IGROV1 ovarian
# [14] = system: NCI-H226 lung
# [15] = system: LOX IMVI melanoma
# [16] = system: OVCAR-3 ovarian
# [17] = system: HOP-92 NSCLC
# [18] = system: UO-31 renal
# [19] = system: ACHN renal
# [20] = system: P388/ADR leukemia
# [21] = system: NCI/ADR-RES ovarian
# [22] = system: HOP-18 NSCLC
# [23] = system: SR leukemia
# [24] = system: SN12C renal
# [25] = system: SNB-75 CNS
# [26] = system: HOP-62 NSCLC
# [27] = system: KM12 colon
# [28] = system: DMS 114 small cell lung
# [29] = system: A549 NSCLC
# [30] = system: K-562 leukemia
# [31] = system: M19-MEL melanoma
# [32] = system: NCI-H23 lung
smiles,measurement,setting,value
COc1cccc2c1C(=O)c1c(O)c3c(c(O)c1C2=O)C[C@@](O)(C(C)O)C[C@@H]3OC1CC(N)C(O)C(C)O1 (stereo partly drawn),TGI,[1],42.5 µM
same,GI50,[2],2.39 µM
same,TGI,[2],5.43 µM and > 52.5 µM
same,GI50,[3],12.1 µM
same,TGI,[3],> 100 µM
same,TGI,[4],2.49 µM and 2.53 µM
same,GI50,[5],0.221 µM
same,TGI,[5],2.87 µM and 1.86 µM
same,TGI,[6],1.69 µM
same,TGI,[7],7.62 µM
same,GI50,[8],1.73 µM
same,TGI,[8],4.91 µM and 9.53 µM
same,TGI,[9],5.52 µM and 6.43 µM
same,TGI,[10],2.4 µM
same,GI50,[11],0.894 µM
same,TGI,[11],4.95 µM and 10.5 µM
same,TGI,[12],8.11 µM
same,TGI,[13],9.22 µM and 18.4 µM
same,GI50,[14],0.808 µM
same,TGI,[14],2.39 µM and 3.11 µM
same,GI50,[15],1.29 µM
same,TGI,[15],4.13 µM and 3.11 µM
same,TGI,[16],7.29 µM and 8.79 µM
same,GI50,[17],0.231 µM
same,TGI,[17],3.37 µM and 2.11 µM
same,TGI,[18],97.8 µM
same,TGI,[19],8.18 µM
same,TGI,[20],> 100 µM
same,TGI,[21],> 100 µM
same,GI50,[22],4.96 µM and 1.13 µM
same,TGI,[22],9.5 µM and 7.49 µM
same,TGI,[23],0.659 µM
same,GI50,[24],1.49 µM
same,TGI,[24],6.58 µM and 7.62 µM
same,GI50,[25],1.71 µM and 1.05 µM
same,TGI,[25],6.25 µM and 4.31 µM
same,TGI,[26],4.3 µM and 4.42 µM
same,GI50,[27],2.75 µM
same,TGI,[27],9.34 µM and 14.3 µM
same,GI50,[28],0.255 µM
same,TGI,[28],1.48 µM and 1.14 µM
same,GI50,[29],1.11 µM
same,TGI,[29],6.02 µM and 29 µM
same,GI50,[30],2.21 µM
same,TGI,[30],8.19 µM and 26.5 µM
same,TGI,[31],3.32 µM and 4.06 µM
same,GI50,[32],1.27 µM
same,TGI,[32],2.44 µM and 4.93 µM
